Results: patent US20090203738A1, “Pharmaceutical Composition for Treating Bulimia and Depression Arising from Bulimia” (priority 2005, published 2009)
Counter-ions that a name gives are not always drawn. Like-named read-outs stand apart in the source and are kept apart here.

Experiments:
[1] = test system: patient with excessive eating and vomiting (bulimia) and depressive state; details: patient history: drug therapy and spiritual therapy at three neurological hospitals before the first examination; cited from earlier work
[2] = test system: patients suffering from light to medium Alzheimer's disease; details: 24-week, double-blind, placebo-controlled trial; cited from earlier work
bulimia = details: cited from earlier work
[3] = test system: patient with excessive eating and vomiting (bulimia), insensitive to 60 mg of fluoxetine
Excerpt: An excessive eating started when they were the third year class ([…]) of high school and it is still continuing. At the first medical examination, they were unable to go to university.

SMILES: O=C1CN=C(c2ccccc2Cl)c2cc([N+](=O)[O-])ccc2N1 [Rivotril]
- improvement under earlier drug therapy [1]: no improvement was noted

SMILES: COc1cc2c(cc1OC)C(=O)C(CC1CCN(Cc3ccccc3)CC1)C2 (stereo not shown) [donepezil hydrochloride, 1-benzyl-4-[(5,6-dimethoxy-1-indanon)-2-yl]methylpiperidine]
- cognitive ability and general function [2]: improves the cognitive ability and general function

SMILES: Fc1ccc([C@@H]2CCNC[C@H]2COc2ccc3c(c2)OCO3)cc1 [Paxil]
- improvement under earlier drug therapy [1]: no improvement was noted

SMILES: OC1(c2ccc(Cl)cc2)c2ccccc2C2=NCCN21 (stereo not shown) [mazindol]
- side effects (bulimia; applied for bulimia): excitation, frustration, load on cardiovascular system, dysuria and others

SMILES: CCCC(CCC)C(=O)[O-].[Na+] [sodium valproate]
- improvement under earlier drug therapy [1]: no improvement was noted

SMILES: CN1C(=O)CN=C(c2ccccc2)c2cc(Cl)ccc21 [diazepam]
- improvement under earlier drug therapy [1]: no improvement was noted

SMILES: CNCCC(Oc1ccc(C(F)(F)F)cc1)c1ccccc1 (stereo not shown) [fluoxetine]
- improvement in excessive eating ([3]; 20 mg of fluoxetine for two weeks): no improvement in excessive eating was noted
- improvement in excessive eating ([3]; fluoxetine increased to 40 mg): no improvement was noted yet
- amount and frequency of excessive eating ([3]; fluoxetine increased up to 60 mg, for two weeks): no decrease in amount and frequency of excessive eating were noted
- depression ([3]; fluoxetine up to 60 mg, six weeks from the initiation of the therapy): No change in depression was noted
- rate of improvement (bulimia; bulimia, 60 mg per day): about 60%

SMILES: COCCCC/C(=N\OCCN)c1ccc(C(F)(F)F)cc1 [fluvoxamine]
- improvement under earlier drug therapy [1]: no improvement was noted

SMILES: Cc1nc2n(c(=O)c1CCN1CCC(c3noc4cc(F)ccc34)CC1)CCCC2 [Risperdal]
- improvement under earlier drug therapy [1]: no improvement was noted
